In patent US10131652B2, “Pyrimidinyloxy benzene derivatives as herbicides” (E. I. DU PONT DE NEMOURS AND COMPANY, priority 2014, dated 2018):

Columns and labels:
[1] = system: cocklebur (common cocklebur, Xanthium strumarium); test: Test F pre-/postemergence plant response; type: in vivo; conditions: scale 0 to 100
Outline: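 Plant response is a visual score from 0, meaning no effect, to 100, meaning complete control, assigned by comparison with untreated plants. Ratings were made 14 to 21 days after preemergence application to seeded silt loam or postemergence application to plants at the 1- to 4-leaf stage.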

[2] = system: monochoria (Monochoria vaginalis); test: Test G flooded paddy rice/weed plant response; type: in vivo; conditions: Flood, 21 days, scale 0 to 100 (0 no effect, 100 complete control)
Source text: (§1) Three plastic pots (ca. 16-cm diameter) per rate were partially filled with sterilized Tama silt loam soil comprising a 35:50:15 ratio of sand, silt and clay and 2.6% organic matter. Separate plantings for each of the three pots were as follows. Seeds from the U.S. of monochoria (Monochoria vaginalis), small-flower umbrella sedge (Cyperus difformis), hardstem bulrush (Scirpus juncoides), and redstem (purple redstem, Ammannia coccinea), were planted into one 16-cm pot for each rate. Seeds from the U.S. of rice flatsedge (Cyperus iria), bearded sprangletop (Leptochloa fascicularis), one stand of 9 or 10 water seeded rice seedlings (Indica rice, Oryza sativa), and two stands of 3 or 4 transplanted rice seedlings (Oryza sativa cv. ‘Japonica—M202’) were planted into one 16-cm pot for each rate. Seeds from the U.S. of bamyardgrass (Echinochloa crus-galli), and late watergrass (Echinochloa oryzicola) were planted into one 16-cm pot for each rate. Plantings were sequential so that crop and weed species were at the 2.0 to 2.5-leaf stage at time of treatment.
(§2) Potted plants were grown in a greenhouse with day/night temperature settings of 30/27° C., and supplemental balanced lighting was provided to maintain a 16-hour photoperiod. Test pots were maintained in the greenhouse until test completion.
(§3) At time of treatment, test pots were flooded to 3 cm above the soil surface, treated by application of test compounds directly to the paddy water, and then maintained at that water depth for the duration of the test. Effects of treatments on rice and weeds were visually evaluated by comparison to untreated controls after 21 days. Plant response ratings, summarized in Table G, are based on a scale of 0 to 100 where 0 is no effect and 100 is complete control. A dash (-) response means no test result.

[3] = system: redstem (purple redstem, Ammannia coccinea); test: Test G flooded paddy rice/weed plant response; type: in vivo; conditions: Flood, 21 days, scale 0 to 100 (0 no effect, 100 complete control)
Source text: as §1, §2, §3

[4] = system: hardstem bulrush (Scirpus juncoides); test: Test G flooded paddy rice/weed plant response; type: in vivo; conditions: Flood, 21 days, scale 0 to 100 (0 no effect, 100 complete control)
Source text: as §1, §2, §3

[5] = system: bearded sprangletop (Leptochloa fascicularis); test: Test G flooded paddy rice/weed plant response; type: in vivo; conditions: Flood, 21 days, scale 0 to 100 (0 no effect, 100 complete control)
Source text: as §1, §2, §3

[6] = system: Russian thistle (Salsola iberica); test: Test E pre-/postemergence plant response; type: in vivo; conditions: scale 0 to 100
Outline: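 Visual scores on a 0–100 scale (100 = complete control) were assigned against untreated controls 7–21 days after treatment in a controlled environment. Compounds, formulated with solvent plus surfactant, were applied to pre-emergence silt-loam sowings or to 1- to 4-leaf plants (2–18 cm) in potting medium.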

Structure (SMILES)	Plant response rating, Monochoria ([2]; 32 g ai/ha)	Plant response rating, Monochoria ([2]; 64 g ai/ha)	Plant response rating, Monochoria ([2]; 125 g ai/ha)	Plant response rating, Monochoria ([2]; 250 g ai/ha)	Plant response rating, Redstem ([3]; 32 g ai/ha)	Plant response rating, Redstem ([3]; 64 g ai/ha)	Plant response rating, Redstem ([3]; 125 g ai/ha)	Plant response rating, Redstem ([3]; 250 g ai/ha)	Plant response rating, Bulrush, Hardstem ([4]; 32 g ai/ha)	Plant response rating, Bulrush, Hardstem ([4]; 64 g ai/ha)	Plant response rating, Bulrush, Hardstem ([4]; 125 g ai/ha)	Plant response rating, Bulrush, Hardstem ([4]; 250 g ai/ha)	Plant response rating, Sprangletop, Brdd. ([5]; 32 g ai/ha)	Plant response rating, Sprangletop, Brdd. ([5]; 64 g ai/ha)	Plant response rating, Sprangletop, Brdd. ([5]; 125 g ai/ha)	Plant response rating, Sprangletop, Brdd. ([5]; 250 g ai/ha)	Plant response rating, Russian Thistle ([6]; 16 g ai/ha Postemergence)	Plant response rating, Russian Thistle ([6]; 16 g ai/ha Preemergence)	Plant response rating, Russian Thistle ([6]; 31 g ai/ha Postemergence)	Plant response rating, Russian Thistle ([6]; 31 g ai/ha Preemergence)	also measured
FC(F)c1cc(-c2ccccc2Oc2ncc(Cl)cn2)no1 [Compound 35, 5-chloro-2-[2-[5-(difluoromethyl)-3-isoxazolyl]phenoxy]pyrimidine]	98	100	100	100	0	85	90	100	0	95	100	100	60	100	100	100	–	–	–	–	Plant response rating, Cocklebur ([1]; 31 g ai/ha Preemergence): 0; Plant response rating, Cocklebur ([1]; 125 g ai/ha Preemergence): 0
Fc1cccc(Oc2ncc(Cl)cn2)c1-c1cc(C(F)F)on1 [Compound 55, 5-chloro-2-[2-[5-(difluoromethyl)-3-isoxazolyl]-3-fluorophenoxy]pyrimidine]	100	100	100	100	85	95	100	100	80	100	100	100	45	80	100	100	–	–	–	–	–
FC(F)c1cc(-c2ccccc2Oc2ncc(Br)cn2)no1 [Compound 62, 5-bromo-2-[2-[5-(difluoromethyl)-3-isoxazolyl]phenoxy]pyrimidine]	–	–	–	–	–	–	–	–	–	–	–	–	–	–	–	–	–	–	–	–	melting point: 89 to 93 °C
Fc1cccc(Oc2ncc(Cl)cn2)c1-c1cc(C(F)F)no1 [Compound 144, 5-chloro-2-[2-[3-(difluoromethyl)-5-isoxazolyl]-3-fluorophenoxy]pyrimidine]	–	–	–	–	–	–	–	–	–	–	–	–	–	–	–	–	85	15	90	65	Plant response rating, Russian Thistle ([6]; 62 g ai/ha Postemergence): 95; Plant response rating, Russian Thistle ([6]; 62 g ai/ha Preemergence): 100; Plant response rating, Russian Thistle ([6]; 125 g ai/ha Postemergence): 98; Plant response rating, Russian Thistle ([6]; 125 g ai/ha Preemergence): 100
Fc1cccc(Oc2ncc(Br)cn2)c1-c1cc(C(F)F)no1 [Compound 145, 5-bromo-2-[2-[3-(difluoromethyl)-5-isoxazolyl]-3-fluorophenoxy]pyrimidine]	–	–	–	–	–	–	–	–	–	–	–	–	–	–	–	–	80	0	85	10	Plant response rating, Russian Thistle ([6]; 62 g ai/ha Postemergence): 90; Plant response rating, Russian Thistle ([6]; 62 g ai/ha Preemergence): 60; Plant response rating, Russian Thistle ([6]; 125 g ai/ha Postemergence): 100; Plant response rating, Russian Thistle ([6]; 125 g ai/ha Preemergence): 100
